Assay results: patent US10450288B2, “Hydroxy formamide derivatives and their use” (GLAXOSMITHKLINE INTELLECTUAL PROPERTY (NO.2) LIMITED, priority 2014, dated 2019)

What follows are molecules tested on human cardiac fibroblasts (assay: Cell-based inhibition assay of generation of procollagen I C-terminal propeptide (PICP), PICP ELISA). Settings: Cardiac fibroblast; human cardiac fibroblasts, crowding media, 24 to 48 hr, PICP ELISA of media; read-out: pIC50, PICP cellular inhibition assay (converted).
Description: Cell-Based Inhibition Assay of Generation of Procollagen I C-Terminal Propeptide (PICP) and Mature Collagen:
An adaptation of the collagen deposition assay described by Chen, C. Z. C., et al., British Journal of Pharmacology, 2009, 158, 1196-1209 was used to examine effect of compounds on procollagen I processing and collagen deposition. In the adapted assay, human cardiac fibroblasts were utilized. Processing of procollagen I was determined by a PICP ELISA assay and deposition of mature collagen was determined by immunostaining.
Human cardiac fibroblasts were cultured and maintained until passage 6 in FGM-3 media (Lonza, #CC-3132) in a 37° C. humidified incubator with 5% CO2. They were then seeded in 96-well black wall, clear bottom plates at 10,000 to 15,000 cells per well in eagle's minimum essential media (EMEM, ATCC #30-2003) containing 10% fetal bovine serum (FBS, Life Technologies #10082147), 1% Glutamax (Life Technologies #35050061) and 1% Penicillin and Streptomycin (Life Technologies #15070063). These cultures were placed in 37° C. incubator. The next day, media were removed by aspiration and cells were rinsed with phosphate buffered saline. Crowding media (also called ficoll media) was prepared by adding 112.5 mg/ml of ficoll70 and 75 mg/ml ficoll400 (GE healthcare #17-0310-10 and 17-0300-10, respectively), 100 μM ascorbic acid, 1% Glutamax and 1% Penicillin and Streptomycin to EMEM media. Test compounds (dissolved in DMSO) were diluted into crowding media and then added to the cells. Final concentration of DMSO in crowding media was less than 0.3%. Cells were treated for 24 to 48 hr in a 37° C. incubator. At the end of the treatment period, cell media were collected. The level of PICP in the media were determined by a PICP ELISA assay (Quidel #8003) following the manufacturer's protocol. Potencies of test compounds were calculated by fitting PICP levels, relative to untreated controls, to log (inhibitor) vs. response equation using Graphpad Prism software 5.0 and expressed as pIC50.

Structure (SMILES) | IC50 [µM]
CCCCC[C@@H](C(=O)NCNC(=O)c1ccc(-c2cc(O)cc(OCC)c2)o1)[C@@H](CC)N(O)C=O [Example 73, 5-(3-ethoxy-5-hydroxyphenyl)-N-(((R)-2-((R)-1-(N-hydroxyformamido)propyl)heptanamido)methyl)furan-2-carboxamide] | < 3.98
CCCCC[C@H](CN(O)C=O)C(=O)NCNC(=O)c1ccc(-c2cccc(C(C)C(=O)O)c2)o1 (stereo partly drawn) [Example 76, 2-(3-(5-((((R)-2-((N-hydroxyformamido)methyl)heptanamido)methyl)carbamoyl)furan-2-yl)phenyl)propanoic acid] | < 3.98
CCCCC[C@H](CN(O)C=O)C(=O)NCNC(=O)c1ccc(-c2ccc(F)c(C(=O)O)c2F)o1 [Example 78] | < 3.98
CCCCC[C@@H](C(=O)NCNC(=O)c1ccc(-c2cccc(C(=O)N[C@@H](CC(=O)O)C(=O)O)c2)o1)[C@@H](CC)N(O)C=O [Example 83, (S)-2-(3-(5-((((R)-2-((R)-1-(N-hydroxy-formamido)propyl)heptamido)methyl)carbamoyl)furan-2-yl)benzamido) succinic acid] | < 3.98
CCCCC[C@@H](C(=O)NCNC(=O)c1ccc(-c2cc(OCC)cc(C(=O)N[C@H](CC(=O)O)C(=O)O)c2)o1)[C@@H](CC)N(O)C=O [Example 84, (R)-2-(3-ethoxy-5-(5-((((R)-2-((R)-1-(N-hydroxy-formamido)propyl)heptanamido)methyl)carbamoyl)furan-2-yl)benzamido) succinic acid] | < 3.98
CCCCC[C@@H](C(=O)NCNC(=O)c1ccc(-c2cc(OCC)cc(C(=O)NCC(=O)O)c2)o1)[C@@H](CC)N(O)C=O [Example 85, 2-(3-ethoxy-5-(5-((((R)-2-((R)-1-(N-hydroxy-formamido)propyl)heptanamido)methyl)carbamoyl)furan-2-yl)benzamido) acetic acid] | < 3.98
CCCCC[C@@H](C(=O)NCNC(=O)c1ccc(-c2cc(OCC)cc(C(=O)N(CC(=O)O)CC(=O)O)c2)o1)[C@@H](CC)N(O)C=O [Example 87, 2,2′-((3-ethoxy-5-(5-((((R)-2-((R)-1-(N-hydroxy-formamido)propyl)heptanamido)methyl)carbamoyl)furan-2-yl)benzoyl)azanediyl) diacetic acid] | < 3.98
CCCCC[C@@H](C(=O)NCNC(=O)c1ccc(-c2cc(OCC)cc(C(=O)NC(CO)(CO)CO)c2)o1)[C@@H](CC)N(O)C=O [Example 88, 5-(3-((1,3-dihydroxy-2-(hydroxymethyl)propan-2-yl)carbamoyl)-5-ethoxyphenyl)-N—(((R)-2-((R)-1-(N-hydroxyformamido)propyl)heptanamido)methyl)furan-2-carboxamide] | < 3.98
CCCCC[C@H](CN(O)C=O)C(=O)NCNC(=O)c1ccc(-c2cccc(C(=O)O)c2)o1 [Example 89, (R)-3-(5-(((2-((N-hydroxyformamido)methyl)heptanamido)methyl)carbamoyl)furan-2-yl)benzoic acid] | < 3.98
CCCCC[C@H](CN(O)C=O)C(=O)NCNC(=O)c1ccc(-c2ccc(F)c(C(=O)O)c2)o1 [Example 91, (R)-2-fluoro-5-(5-(((2-((N-hydroxy-formamido)methyl)heptanamido)methyl)carbamoyl)furan-2-yl)benzoic acid] | < 3.98
CCCCC[C@H](CN(O)C=O)C(=O)NCNC(=O)c1ccc(-c2ccc(C(=O)O)cc2)o1 [Example 92, (R)-4-(5-(((2-((N-hydroxyformamido)methyl)heptanamido)methyl)carbamoyl)furan-2-yl)benzoic acid] | < 3.98
CCCCC[C@H](CN(O)C=O)C(=O)NCNC(=O)c1ccc(-c2cccc(P(C)(=O)O)c2)o1 [Example 94, (3-(5-((((R)-2-((N-hydroxyformamido)methyl)heptanamido)methyl)carbamoyl)furan-2-yl)phenyl)(methyl)phosphinic acid] | < 3.98
CCCCC[C@@H](C(=O)NCNC(=O)C1CCC(c2cc(OCC)cc(P(=O)(O)O)c2)O1)[C@@H](CC)N(O)C=O (stereo partly drawn) [Example 97, (3-ethoxy-5-(5-((((R)-2-((R)-1-(N-hydroxyformamido)propyl)heptanamido)methyl)carbamoyl)tetrahydrofuran-2-yl)phenyl)phosphonic acid] | < 3.98
CCCCC[C@@H](C(=O)NCNC(=O)c1ccc(-c2cc(OCC)cc(C(=O)NCP(=O)(O)O)c2)o1)[C@@H](CC)N(O)C=O [Example 100, ((3-ethoxy-5-(5-((((R)-2-((R)-1-(N-hydroxy-formamido)propyl)heptanamido)methyl)carbamoyl)furan-2-yl)benzamido)methyl) phosphonic acid] | < 3.98
CCCCC[C@H](CN(O)C=O)C(=O)NCNC(=O)c1ccc(-c2cccc(OCC(F)F)c2)o1 [Example 102, (R)-5-(3-(2,2-difluoroethoxy)phenyl)-N-((2-((N-hydroxyformamido)methyl)heptanamido)methyl)furan-2-carboxamide] | < 3.98
CCCCC[C@H](CN(O)C=O)C(=O)NCNC(=O)c1ccc(-c2cccc(SCC)c2)o1 [Example 103, (R)-5-(3-(ethylthio)phenyl)-N-((2-((N-hydroxyformamido)methyl)heptanamido)methyl)furan-2-carboxamide] | < 3.98
CCCCC[C@H](CN(O)C=O)C(=O)NCNC(=O)c1ccc(-c2cccc(SC)c2)o1 [Example 104, (R)-N-((2-((N-hydroxyformamido)methyl)heptanamido)methyl)-5-(3-(methylthio)phenyl)furan-2-carboxamide] | < 3.98
CCCCC[C@H](CN(O)C=O)C(=O)NCNC(=O)c1ccc(-c2cccc([N+](=O)[O-])c2)o1 [Example 105, (R)—N-((2-((N-hydroxyformamido)methyl)heptanamido)methyl)-5-(3-nitrophenyl)furan-2-carboxamide] | < 3.98
CCCCC[C@H](CN(O)C=O)C(=O)NCNC(=O)c1ccc(-c2ccc3cnn(C)c3c2)o1 [Example 106, (R)—N-((2-((N-hydroxyformamido)methyl)heptanamido)methyl)-5-(1-methyl-1H-indazol-6-yl)furan-2-carboxamide] | < 3.98
CCCCC[C@H](CN(O)C=O)C(=O)NCNC(=O)c1ccc(-c2cccc(P(=O)(O)O)c2)o1 [Example 108, (R)-(3-(5-(((2-((N-hydroxyformamido)methyl)heptanamido)methyl)carbamoyl)furan-2-yl)phenyl)phosphonic acid] | < 3.98
CCCCC[C@@H](C(=O)NCNC(=O)c1ccc(-c2ccc(C(=O)O)c(CC(=O)O)c2)o1)[C@@H](CC)N(O)C=O [Example 114] | < 3.98
CCOc1cc(C(=O)O)c(O)c(-c2ccc(C(=O)NCNC(=O)[C@H](CCc3ccccc3)[C@@H](CC)N(O)C=O)o2)c1 [Example 115, 5-ethoxy-2-hydroxy-3-(5-((((2R,3R)-3-(N-hydroxyformamido)-2-phenethylpentanamido)methyl)carbamoyl)furan-2-yl)benzoic acid] | < 3.98
CCOc1cc(-c2ccc(C(=O)NCNC(=O)[C@H](CCc3ccc4ccccc4c3)[C@@H](CC)N(O)C=O)o2)ccc1C(=O)N[C@@H](CC(=O)O)C(=O)O [Example 117, (S)-2-(2-ethoxy-4-(5-((((2R,3R)-3-(N-hydroxyformamido)-2-(2-(naphthalen-2-yl)ethyl)pentana-mido)methyl)carbamoyl)furan-2-yl)benzamido) succinic acid] | < 3.98
CC[C@H]([C@@H](CCc1ccc(F)cc1F)C(=O)NCNC(=O)c1ccc(-c2cc(OCC(=O)O)cc(C(=O)O)c2O)o1)N(O)C=O [Example 118, 5-(carboxymethoxy)-3-(5-((((2R,3R)-2-(2,4-difluorophenethyl)-3-(N-hydroxyformamido)pentanamido)methyl)carbamoyl)furan-2-yl)-2-hydroxybenzoic acid] | < 3.98
CCCCC[C@@H](C(=O)NCNC(=O)c1ccc(-c2ccc(C(=O)N[C@@H](CC(=O)O)C(=O)O)cc2)o1)[C@@H](CC)N(O)C=O [Example 119, (S)-2-(4-(5-((((R)-2-((R)-1-(N-hydroxyformamido)propyl)heptanamido)methyl)carbamoyl)furan-2-yl)benzamido) succinic acid] | < 3.98

Same assay, conditions: Homo sapiens, Cardiac fibroblast, read-out: pIC50, PICP cellular inhibition assay (converted)

Structure (SMILES) | IC50 [µM]
CCCCC[C@H](CN(O)C=O)C(=O)NCNC(=O)c1ccc(-c2cccc(P(=O)(O)OC)c2)o1 [Example 95, methyl hydrogen (3-(5-((((R)-2-((N-hydroxyformamido)methyl)heptanamido)methyl)carbamoyl)furan-2-yl)phenyl)phosphonate] | < 3.98
CCCCC[C@@H](C(=O)NCNC(=O)c1ccc(-c2cc(OCC)cc(P(=O)(O)OC)c2)o1)[C@@H](CC)N(O)C=O [Example 101, methyl hydrogen (3-ethoxy-5-(5-((((R)-2-((R)-1-(N-hydroxyformamido)propyl)heptanamido)methyl)carbamoyl)furan-2-yl)phenyl)phosphonate] | < 3.98
